Converted amounts (≈) assume the structure as drawn.
Legend:
[1] = tested on: Staphylococcus aureus strain MN8; test: MIC and MBC assay, broth dilution with plate counts; format: cell-based; conditions: for minimum bactericidal concentration (MBC) / minimum inhibitory concentration (MIC): Staphylococcus Aureus MN8 strain, 24-hour incubation, Todd Hewitt broth, aerobic 37° C.; for activity compared with GML (log CFU/mL, FIGS. 1A and 1B): staphylococcus aureus MN8 cultured with various concentrations
Method: For this experiment, all cultures were aerobic at 37° C. with 150 RPM gyrotary shaking. Stationary phase with this microbe is 1.0x1010 colony-forming units (CFUs)/ml. The next morning the culture was diluted to approximately 5x10^6/ml in 1 ml amounts of Todd Hewitt broth in 5 ml polystyrene test tubes. The tubes contained serial two-fold dilutions of glycerol monolaurate, SGML, or […]. The control tubes contained no GML or SGML and […] compounds. The compounds were tested in triplicate. […] The control tube contained the highest volume of ethanol that was used to deliver the compounds to each 1 ml test tube. […] Once plated, the plates were incubated aerobically for 24 hours at 37° C. Counts were made to determine CFUs/ml. The CFUs/ml were log-transformed and mean ± SD were determined. Using the standard MIC and MBC assay above with staphylococcus aureus strain […] and […] were tested with GML.

[2] = tested on: Lipase (glycerol ester hydrolase); test: Lipase (glycerol ester hydrolase) assay, esterase resistance; format: biochemical, Staphylococcus aureus; conditions: 500 ug/ml compound; lipase 25 ug/ml; 24 hours at 37° C.
Method: Protocol for Lipase (glycerol ester hydrolase) assay: • 1. Two separate samples of lipase at 25 ug/ml were prepared. • 2. Microscope slides were made up with 500 ug/ml of GML, SGML, or S2ML compounds. • These slides contained 0.85% agarose (Difco) heat solubilized into PBS (0.005 M NaPO4 pH 7.2; 0.15MNaC1). • 3. The mixtures contained the compounds above their solubility limits, so they were vortexed, and 4.5 ml of the cloudy mixtures was spread onto microscope slides. • 4. The slides remained at room temperature for 1 hour to allow the agarose to solidify. • 5. The, 4 mm wells were punched into the agarose, twice per slide. • 6. 20 ul of the Lipase was added to each well. • 7. The slides were incubated for 24 hours at 37° C. • 8. The diameter squared was determined for each. This allows determination of hydrolysis of compound. • GML: 15 mm; 15 mm diameters (diameters squared=225 mm) • SGML: 12 mm; 13 mm diameters (diameters squared=144 mm and 169 mm for an average of 156.5 mm) • S2GML: 0 mm; 0 mm diameters (diameters squared=0) • 10. Diameter squared is used to the determination would be a straight line with a standard curve. • Set GML at 100% • 11. SGML is 70% as much as GML • 12. S2GML is 0% of GML

TSST-1 = format: cell-based, Staphylococcus aureus
Candida auris = test: MIC/MBC at 24 hours; format: cell-based; conditions: Time 0 4.5E+05 CFU/ml
Method: Candida auris is a newly emerging yeast (fungus) that is causing skin and bloodstream infections in humans. It easily becomes resistant to anti-fungal agents, making development of novel therapeutics a necessity. This organism is related to Candida albicans and other Candida species. The MIC and MBC in the above table show very good activity of both the SGML and S2GML versus this organism.
(§1) All solutions used in the MBC and MIC studies were prepared from a stock of 100 mg/ml of either GML, SGML or S2GML in absolute ethanol.

Bacillus subtilis = test: MIC/MBC at 24 hours; format: cell-based; conditions: Time 0 1.1E+07 CFU/ml, 200 RPM shaking at 37° C.
Method: Bacillus subtilis, an aerobic spore-former, was incubated with 200 RPM shaking at 37° C. The strain was a recent clinical isolate at the University of Iowa, and proves to develop resistance to standard […] agents.
as §1

Escherichia coli [3] = test: MIC and MBC test with E. coli; format: cell-based; conditions: for effectiveness compared with GML (FIG. 3): E. coli MIC and MBC test; for Minimum Inhibitory Concentration / Mininum Bactericidal Concentration: E. coli laboratory strain from a patient with urinary tract infection, same conditions as S. aureus MN8
Method: The conditions for this test were the same as in the above example with S. aureus MN8. The E. coli strain was a laboratory strain from a patient with a confirmed urinary tract infection. The strain is maintained in the laboratory at -80° C.

[4] = tested on: Streptococcus pyogenes (Group A streptococcus) 594; test: MIC/MBC at 24 hours; format: cell-based; conditions: Streptococcus pyogenes GAS 594, Time 0 2.7E+06 CFU/ml, stationary at 37° C. in 5% CO2
Method: Streptococcus pyogenes (Group A streptococcus) 594 is a standard scarlet fever strain that has been extensively published on. The strain was incubated stationary at 37° C. in 5% CO2.
as §1

Enterobacter aerogenes = conditions: Gram Negative; Aerobe; 1 strain tested; cited from earlier work
[5] = tested on: Prevotella melaninogenica; conditions: Gram Negative; Anaerobe; 1 strain tested; cited from earlier work
Group C Streptococcus = conditions: Gram Positive; Aerotolerant Anaerobe; 1 strain tested; cited from earlier work
[6] = tested on: Bacillus anthracis Sterne; conditions: Gram Positive; Aerobe; 1 strain tested; cited from earlier work
[7] = tested on: other Gram-positive bacteria and Gram-negative bacteria with an incomplete lipopolysaccharide; test: Killing of other bacteria by GML; format: cell-based; conditions: other Gram-positive bacteria and Gram-negative bacteria with lipo-oligosaccharide
[8] = tested on: Escherichia coli (e. coli); conditions: Welch et al., mBio 2020; cited from earlier work
Listeria monocytogenes = conditions: Gram Positive; Aerobe; 1 strain tested; cited from earlier work
Streptococcus pyogenes = conditions: Gram Positive; Aerotolerant Anaerobe; 4 strains tested; cited from earlier work
Streptococcus sanguinis = conditions: Gram Positive; Aerotolerant Anaerobe; 1 strain tested; cited from earlier work
[9] = tested on: Bordetella bronchiseptica; conditions: Gram Negative; Aerobe; 1 strain tested; cited from earlier work
[10] = tested on: Haemophilus influenza Non-typable; conditions: Gram Negative; Aerobe; 2 strains tested; cited from earlier work
Neisseria gonorrhoeae = conditions: Gram Negative; Aerobe; 1 strain tested; cited from earlier work
Streptococcus agalactiae = conditions: Gram Positive; Aerotolerant Anaerobe; 3 strains tested; cited from earlier work
[11] = tested on: glycerol ester hydrolase (lipase); test: Lipase production by S. aureus in presence of GML; format: cell-based, Staphylococcus aureus; conditions: S. aureus strains
[12] = tested on: Streptococcus pneumoniae Serotype III; conditions: Gram Positive; Aerotolerant Anaerobe; 2 strains tested; cited from earlier work
Streptococcus suis = conditions: Gram Positive; Aerotolerant Anaerobe; 1 strain tested; cited from earlier work
Klebsiella pneumoniae = conditions: Gram Negative; Aerobe; 1 strain tested; cited from earlier work
Group F Streptococcus = conditions: Gram Positive; Aerotolerant Anaerobe; 1 strain tested; cited from earlier work
Bacteroides fragilis = conditions: Gram Negative; Anaerobe; 2 strains tested; cited from earlier work
Escherichia coli [13] = conditions: Gram Negative; Aerobe; 2 strains tested; cited from earlier work
Proteus vulgaris = conditions: Gram Negative; Aerobe; 1 strain tested; cited from earlier work
Clostridium perfringens = conditions: Gram Positive; Anaerobe; 1 strain tested; cited from earlier work
Pasteurella multocida = conditions: Gram Negative; Aerobe; 1 strain tested; cited from earlier work
Salmonella Minnesota = conditions: Gram Negative; Aerobe; 1 strain tested; cited from earlier work
Fusobacterium species = conditions: Gram Negative; Anaerobe; 1 strain tested; cited from earlier work
Gardnerella vaginalis = conditions: Gram Negative; Aerobe; 2 strains tested; cited from earlier work
Group G Streptococcus = conditions: Gram Positive; Aerotolerant Anaerobe; 1 strain tested; cited from earlier work
Enterococcus faecalis = conditions: Gram Positive; Aerotolerant Anaerobe; 1 strain tested; cited from earlier work
Shigella sonnei = conditions: Gram Negative; Aerobe; 1 strain tested; cited from earlier work
Bacillus cereus = conditions: Gram Positive; Aerobe; 1 strain tested; cited from earlier work
Burkholderia cenocepacia = conditions: Gram Negative; Aerobe; 1 strain tested; cited from earlier work
S. aureus strains = test: Susceptibility of S. aureus strains to GML; format: cell-based, Staphylococcus aureus
Pseudomonas aeruginosa = conditions: Gram Negative; Aerobe; 1 strain tested; cited from earlier work
Mycobacterium phlei = conditions: Acid Fast; Aerobe; 1 strain tested; cited from earlier work
Mycoplasma hominis = conditions: Cell Wall deficient; Aerobe; 1 strain tested; cited from earlier work
Campylobacter jejuni = conditions: Gram Negative; Aerobe; 1 strain tested; cited from earlier work
[14] = tested on: Gram-negative bacteria with an intact lipopolysaccharide, such as Escherichia coli; test: Killing of Gram-negative bacteria with intact lipopolysaccharide by GML; format: cell-based
Staphylococcus aureus = conditions: Gram Positive; Aerobe; 54 strains tested; cited from earlier work
[15] = tested on: Mycobacterium tuberculosis; conditions: Acid Fast; Aerobe; 1 strain tested; cited from earlier work
[16] = tested on: Peptostreptococcus species; conditions: Gram Positive; Anaerobe; 1 strain tested; cited from earlier work

CCCCCCCCCCCC(=S)SCC(O)CO (stereo not drawn) [Example S2GML, glycerol dithionomonolaureate]
minimum bactericidal concentration (MBC) [1]: 63.5 µg/mL (≈ 207 µM) | minimum inhibitory concentration (MIC) [1]: 31.125 µg/mL (≈ 102 µM) | activity compared with GML (log CFU/mL, FIGS. 1A and 1B) [1]: clearly has more activity | hydrolysis as % of GML (diameter squared, GML set at 100%) [2]: 0% | inhibition of TSST-1 (TSST-1): < 4 µg/mL | MIC/MBC (Candida auris): 1.0 µg/mL (≈ 3.26 µM) | MIC/MBC (Bacillus subtilis): <1.0 µg/mL | effectiveness compared with GML (FIG. 3) (Escherichia coli [3]): performed similarly to GML | Minimum Inhibitory Concentration (Escherichia coli [3]): 500 µg/mL | Mininum Bactericidal Concentration (Escherichia coli [3]): 500 µg/mL | MIC/MBC [4]: <0.1 µg/mL

CCCCCCCCCCCC(=O)OCC(O)CO (stereo not drawn) [GML, glycerol monolaureate]
Average Bactericidal Concentration (Enterobacter aerogenes): Not Susceptible | Average Bactericidal Concentration [5]: 50 mg/mL | Average Bactericidal Concentration (Group C Streptococcus): 30 mg/mL | Average Bactericidal Concentration [6]: 50 mg/mL | concentrations that kill [7]: 25 to 50 µg/mL | effectiveness against Escherichia coli [8]: not effective | Average Bactericidal Concentration (Listeria monocytogenes): 50 mg/mL | Average Bactericidal Concentration (Streptococcus pyogenes): 30 mg/mL | Average Bactericidal Concentration (Streptococcus sanguinis): 50 mg/mL | Average Bactericidal Concentration [9]: 1 mg/mL | Average Bactericidal Concentration [10]: 50 mg/mL | Average Bactericidal Concentration (Neisseria gonorrhoeae): 20 mg/mL | Average Bactericidal Concentration (Streptococcus agalactiae): 30 mg/mL | GML concentration at which lipase cannot be produced [11]: about 300 µg/ml | Average Bactericidal Concentration [12]: 10 mg/mL | Average Bactericidal Concentration (Streptococcus suis): 50 mg/mL | Average Bactericidal Concentration (Klebsiella pneumoniae): Not Susceptible | MBC ([1]; Staphylococcus aureus, MN8, 24 h, read-out: minimum bactericidal concentration (MBC)): 250 µg/mL (≈ 911 µM) | MIC ([1]; Staphylococcus aureus, MN8, 24 h, read-out: minimum inhibitory concentration (MIC)): 250 µg/mL (≈ 911 µM) | Average Bactericidal Concentration (Group F Streptococcus): 20 mg/mL | Average Bactericidal Concentration (Bacteroides fragilis): 50 mg/mL | Average Bactericidal Concentration (Escherichia coli [13]): Not Susceptible | Average Bactericidal Concentration (Proteus vulgaris): Not Susceptible | Average Bactericidal Concentration (Clostridium perfringens): 1 mg/mL | Average Bactericidal Concentration (Pasteurella multocida): 500 mg/mL | Average Bactericidal Concentration (Salmonella Minnesota): Not Susceptible | Average Bactericidal Concentration (Fusobacterium species): 50 mg/mL | Average Bactericidal Concentration (Gardnerella vaginalis): 10 mg/mL | Average Bactericidal Concentration (Group G Streptococcus): 50 mg/mL | Average Bactericidal Concentration (Enterococcus faecalis): 100 mg/mL | Average Bactericidal Concentration (Shigella sonnei): Not Susceptible | inhibition of TSST-1 (TSST-1): 16 µg/mL | MIC/MBC (Candida auris): 50 µg/mL (≈ 182 µM) | Average Bactericidal Concentration (Bacillus cereus): 50 mg/mL | Average Bactericidal Concentration (Burkholderia cenocepacia): 500 mg/mL | concentration to which all S. aureus strains tested remain susceptible (S. aureus strains; all strains of S. aureus tested): ≤ 500 µg/mL | bactericidal concentration (S. aureus strains; most S. aureus strains): 250 µg/mL | MIC/MBC (Bacillus subtilis): 50 µg/mL (≈ 182 µM) | Average Bactericidal Concentration (Pseudomonas aeruginosa): Not Susceptible | Average Bactericidal Concentration (Mycobacterium phlei): 100 mg/mL | Average Bactericidal Concentration (Mycoplasma hominis): 1 mg/mL | Average Bactericidal Concentration (Campylobacter jejuni): 1 mg/mL | concentration that kills ([14]; with accelerants: low pH and EDTA addition): 25 to 50 µg/mL | susceptibility to GML ([14]; without accelerants): completely resistant | Average Bactericidal Concentration (Staphylococcus aureus): 300 mg/mL | Mininum Bactericidal Concentration (Escherichia coli [3]): 500 µg/mL | MIC (Escherichia coli [3]; Escherichia coli, read-out: Minimum Inhibitory Concentration): 500 µg/mL (≈ 1820 µM) | Average Bactericidal Concentration [15]: 100 mg/mL | MIC/MBC [4]: 1.0 µg/mL (≈ 3.64 µM) | Average Bactericidal Concentration [16]: 1 mg/mL

CCCCCCCCCCCC(=S)OCC(O)CO (stereo not drawn) [SGML, glycerol thionomonolaureate]
minimum bactericidal concentration (MBC) [1]: 125 µg/mL (≈ 430 µM) | minimum inhibitory concentration (MIC) [1]: 125 µg/mL (≈ 430 µM) | activity compared with GML (log CFU/mL, FIGS. 1A and 1B) [1]: more active than GML | hydrolysis as % of GML (diameter squared, GML set at 100%) [2]: 70% | inhibition of TSST-1 (TSST-1): 8 µg/mL | MIC/MBC (Candida auris): 10 µg/mL (≈ 34.4 µM) | MIC/MBC (Bacillus subtilis): 10 µg/mL (≈ 34.4 µM) | effectiveness compared with GML (FIG. 3) (Escherichia coli [3]): more effective than GML | Minimum Inhibitory Concentration (Escherichia coli [3]): 250 µg/mL | Mininum Bactericidal Concentration (Escherichia coli [3]): 250 µg/mL | MIC/MBC [4]: 0.1 µg/mL (≈ 0.344 µM)

— US20230174473A1, “ANTIMICROBIAL AND ANTIVIRAL SULFUR CONTAINING GLYCEROL MONOESTER DERIVATIVES” (priority 2020, published 2023)
